Assay results: ChEMBL document CHEMBL4699655, “Optimization of the In Vivo Potency of Pyrazolopyrimidine MALT1 Protease Inhibitors by Reducing Metabolism and Increasing Potency in Whole Blood” (J Med Chem, 2020)
In brackets after ≈: the same amount, converted by molar mass. Activity calls are given as the source filed them. The rule behind the calls is not given here.

Key:
[1] = Intrinsic clearance in human liver microsomes; format: ADME, Microsome; conditions: read-out: CLH
[2] = Intrinsic clearance in rat liver microsomes; format: ADME, Microsome; conditions: read-out: CLH
[3] = Intrinsic clearance in mouse liver microsomes; format: ADME, Microsome; conditions: read-out: CLH
[4] = Lipophilicity, logP of the compound; conditions: octanol/water
[5] = Protein binding in human plasma; format: ADME, cell-free; conditions: read-out: PPB (converted)
[6] = Protein binding in rat plasma; format: ADME, cell-free; conditions: read-out: PPB (converted)
[7] = Apparent permeability from apical to basolateral side in human Caco-2 cells
[8] = target: Cytochrome P450 3A4 (Homo sapiens, UniProt P08684); assay: Inhibition of CYP3A4 (unknown origin)
Sequence of Cytochrome P450 3A4 (P08684 whole entry): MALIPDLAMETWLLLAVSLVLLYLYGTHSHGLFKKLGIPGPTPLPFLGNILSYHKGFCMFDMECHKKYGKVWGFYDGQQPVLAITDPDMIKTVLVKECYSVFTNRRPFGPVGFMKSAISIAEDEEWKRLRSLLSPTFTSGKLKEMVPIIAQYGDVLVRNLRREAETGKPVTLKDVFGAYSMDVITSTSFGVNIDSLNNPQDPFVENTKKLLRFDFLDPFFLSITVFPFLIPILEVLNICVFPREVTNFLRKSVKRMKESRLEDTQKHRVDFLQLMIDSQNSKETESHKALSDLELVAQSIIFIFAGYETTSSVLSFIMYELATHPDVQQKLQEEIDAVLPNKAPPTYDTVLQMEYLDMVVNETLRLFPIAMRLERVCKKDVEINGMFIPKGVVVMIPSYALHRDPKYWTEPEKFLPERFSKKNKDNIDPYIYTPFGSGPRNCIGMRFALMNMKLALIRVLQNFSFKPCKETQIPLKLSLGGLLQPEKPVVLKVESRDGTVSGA

[9] = target: Cytochrome P450 2C9 (Homo sapiens, UniProt P11712); assay: Inhibition of CYP2C9 (unknown origin)
Sequence of Cytochrome P450 2C9 (P11712 whole entry): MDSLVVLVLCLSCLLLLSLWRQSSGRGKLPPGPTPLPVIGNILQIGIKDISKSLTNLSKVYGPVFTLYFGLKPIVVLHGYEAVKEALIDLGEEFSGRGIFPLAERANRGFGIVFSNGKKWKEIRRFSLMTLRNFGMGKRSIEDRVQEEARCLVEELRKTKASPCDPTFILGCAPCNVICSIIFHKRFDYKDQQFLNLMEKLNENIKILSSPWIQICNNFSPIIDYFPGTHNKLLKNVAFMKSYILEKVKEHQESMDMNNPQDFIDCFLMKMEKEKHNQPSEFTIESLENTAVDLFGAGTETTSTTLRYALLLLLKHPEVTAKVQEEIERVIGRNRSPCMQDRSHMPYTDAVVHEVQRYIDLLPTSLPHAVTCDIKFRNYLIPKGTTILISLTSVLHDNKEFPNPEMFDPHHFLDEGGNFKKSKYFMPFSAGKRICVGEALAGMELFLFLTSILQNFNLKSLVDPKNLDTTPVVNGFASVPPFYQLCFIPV

[10] = target: Cytochrome P450 2D6 (Homo sapiens, UniProt P10635); assay: Inhibition of CYP2D6 (unknown origin)
Sequence of Cytochrome P450 2D6 (P10635 whole entry): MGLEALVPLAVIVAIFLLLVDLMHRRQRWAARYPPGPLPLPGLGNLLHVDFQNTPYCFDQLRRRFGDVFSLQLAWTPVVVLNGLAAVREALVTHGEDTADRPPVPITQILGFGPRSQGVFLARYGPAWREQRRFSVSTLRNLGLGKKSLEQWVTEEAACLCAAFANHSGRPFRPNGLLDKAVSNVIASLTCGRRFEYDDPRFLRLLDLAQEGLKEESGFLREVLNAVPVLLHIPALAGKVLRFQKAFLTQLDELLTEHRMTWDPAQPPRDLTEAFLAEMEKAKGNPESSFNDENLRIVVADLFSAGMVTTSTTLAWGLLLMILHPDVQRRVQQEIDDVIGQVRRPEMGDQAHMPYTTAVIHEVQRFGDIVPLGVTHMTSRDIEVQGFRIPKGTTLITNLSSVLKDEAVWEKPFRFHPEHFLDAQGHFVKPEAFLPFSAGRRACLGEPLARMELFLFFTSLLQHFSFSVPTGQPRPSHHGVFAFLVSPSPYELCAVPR

[11] = Thermodynamic solubility of the compound
[12] = Oral bioavailability in Balb/C mouse at 3 mg/kg; format: ADME, organism-based; conditions: in vivo
[13] = Clearance in Sprague-Dawley rat at 1 mg/kg, iv; format: ADME, organism-based; conditions: in vivo
[14] = Clearance in Balb/C mouse at 1 mg/kg, iv; format: ADME, organism-based; conditions: in vivo
[15] = Terminal half life in Sprague-Dawley rat at 1 mg/kg, iv; format: ADME, organism-based; conditions: in vivo, read-out: beta t1/2 (converted)
[16] = Terminal half life in Balb/C mouse at 1 mg/kg, iv; format: ADME, organism-based; conditions: in vivo, read-out: beta t1/2 (converted)
[17] = Apparent volume of distribution at steady state in Sprague-Dawley rat at 1 mg/kg, iv; format: ADME, organism-based; conditions: in vivo, read-out: Vdss(app)
[18] = Apparent volume of distribution at steady state in Balb/C mouse at 1 mg/kg, iv; format: ADME, organism-based; conditions: in vivo, read-out: Vdss(app)
[19] = AUC (0 to 24 hrs) in Sprague-Dawley rat at 3 mg/kg, po; format: ADME, organism-based; set-up: time < 24 hr, route oral, dose 3 mg/kg; conditions: in vivo
[20] = AUC (0 to 24 hrs) in Balb/C mouse at 3 mg/kg, po; format: ADME, organism-based; set-up: time < 24 hr, route oral, dose 3 mg/kg; conditions: in vivo
[21] = Cmax in Sprague-Dawley rat at 3 mg/kg, po; format: ADME, organism-based; set-up: route oral, dose 3 mg/kg; conditions: in vivo
[22] = Cmax in Balb/C mouse at 3 mg/kg, po; format: ADME, organism-based; set-up: route oral, dose 3 mg/kg; conditions: in vivo
[23] = Oral bioavailability in Sprague-Dawley rat at 3 mg/kg; format: ADME, organism-based; conditions: in vivo
[24] = test system: OCI-Ly3; assay: Growth inhibition of human OCILY3 cells grown in soft agar at 19.5 to 10000 nM; format: functional, cell-based; conditions: dose nM 19.5-10000
[25] = test system: BJAB; assay: Growth inhibition of human BJAB cells grown in soft agar at 19.5 to 10000 nM; format: functional, cell-based; conditions: dose nM 19.5-10000
[26] = test system: OCI-Ly3; assay: Growth inhibition of human OCILY3 cells grown in soft agar
[27] = test system: BJAB; assay: Growth inhibition of human BJAB cells grown in soft agar
[28] = test system: OCI-Ly3; assay: Inhibition of ROS production in human OCILY3 cells
[29] = target: T1, Caspase-3 (Homo sapiens, UniProt P42574); assay: Inhibition of caspase-3 (unknown origin)
T1 sequence (P42574 whole entry): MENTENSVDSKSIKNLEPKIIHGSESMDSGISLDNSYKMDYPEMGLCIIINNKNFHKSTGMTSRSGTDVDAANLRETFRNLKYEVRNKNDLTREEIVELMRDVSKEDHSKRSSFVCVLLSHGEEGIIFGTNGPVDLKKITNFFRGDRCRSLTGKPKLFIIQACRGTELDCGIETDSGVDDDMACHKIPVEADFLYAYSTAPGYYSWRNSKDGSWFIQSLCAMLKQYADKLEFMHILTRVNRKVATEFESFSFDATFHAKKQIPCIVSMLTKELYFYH

[30] = target: Cathepsin B (Homo sapiens, UniProt P07858); assay: Inhibition of cathepsin B (unknown origin)
[31] = target: Dipeptidyl peptidase 1 (Homo sapiens, UniProt P53634); assay: Inhibition of cathepsin C (unknown origin)
Sequence of Dipeptidyl peptidase 1 (P53634 25-134 limits assumed): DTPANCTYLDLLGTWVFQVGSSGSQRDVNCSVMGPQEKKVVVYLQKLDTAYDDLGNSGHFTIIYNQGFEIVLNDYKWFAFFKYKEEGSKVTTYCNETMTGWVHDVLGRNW
Sequence of Dipeptidyl peptidase 1 (P53634 231-394 limits assumed): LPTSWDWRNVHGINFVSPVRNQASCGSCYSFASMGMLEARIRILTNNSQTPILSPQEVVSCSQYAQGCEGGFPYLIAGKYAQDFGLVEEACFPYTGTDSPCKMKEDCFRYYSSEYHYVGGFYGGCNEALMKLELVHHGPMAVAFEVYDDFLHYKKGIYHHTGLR
Sequence of Dipeptidyl peptidase 1 (P53634 395-463 limits assumed): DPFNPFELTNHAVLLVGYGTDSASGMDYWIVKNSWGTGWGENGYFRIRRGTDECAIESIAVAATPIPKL

[32] = target: T2, Cathepsin K (Homo sapiens, UniProt P43235); assay: Inhibition of cathepsin K (unknown origin)
T2 sequence (P43235 whole entry): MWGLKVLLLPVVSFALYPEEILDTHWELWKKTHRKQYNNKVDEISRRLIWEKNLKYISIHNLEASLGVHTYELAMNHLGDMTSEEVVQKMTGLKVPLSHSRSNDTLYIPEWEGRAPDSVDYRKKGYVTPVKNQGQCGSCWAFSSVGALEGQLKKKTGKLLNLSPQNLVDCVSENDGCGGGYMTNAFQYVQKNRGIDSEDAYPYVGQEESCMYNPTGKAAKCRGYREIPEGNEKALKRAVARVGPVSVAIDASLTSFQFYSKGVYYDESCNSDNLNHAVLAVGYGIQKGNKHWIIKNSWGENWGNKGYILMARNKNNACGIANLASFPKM

[33] = target: Procathepsin L (Homo sapiens, UniProt P07711); assay: Inhibition of cathepsin L (unknown origin)
Sequence of Procathepsin L (P07711 whole entry): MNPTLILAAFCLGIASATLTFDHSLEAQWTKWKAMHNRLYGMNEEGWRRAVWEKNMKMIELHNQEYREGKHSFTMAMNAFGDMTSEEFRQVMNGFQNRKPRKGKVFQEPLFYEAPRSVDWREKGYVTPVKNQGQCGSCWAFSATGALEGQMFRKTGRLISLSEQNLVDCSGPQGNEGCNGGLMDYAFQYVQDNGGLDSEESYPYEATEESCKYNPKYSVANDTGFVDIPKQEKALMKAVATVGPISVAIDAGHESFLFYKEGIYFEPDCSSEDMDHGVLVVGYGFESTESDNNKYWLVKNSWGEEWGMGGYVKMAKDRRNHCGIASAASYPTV

[34] = target: Cathepsin S (Homo sapiens, UniProt P25774); assay: Inhibition of cathepsin S (unknown origin)
Sequence of Cathepsin S (P25774 whole entry): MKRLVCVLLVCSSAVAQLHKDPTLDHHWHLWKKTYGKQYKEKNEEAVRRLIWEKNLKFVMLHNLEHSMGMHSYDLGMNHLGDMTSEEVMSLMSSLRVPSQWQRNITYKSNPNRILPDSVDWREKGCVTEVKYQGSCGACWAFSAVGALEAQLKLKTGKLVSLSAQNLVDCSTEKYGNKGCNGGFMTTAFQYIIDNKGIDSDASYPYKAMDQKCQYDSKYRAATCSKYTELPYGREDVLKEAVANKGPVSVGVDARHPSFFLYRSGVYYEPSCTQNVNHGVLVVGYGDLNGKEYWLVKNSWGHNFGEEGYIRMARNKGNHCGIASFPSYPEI

[35] = target: Voltage-gated inwardly rectifying potassium channel KCNH2 (Homo sapiens, UniProt Q12809); assay: Inhibition of human ERG by dofetilide binding assay
Sequence of Voltage-gated inwardly rectifying potassium channel KCNH2 (Q12809 whole entry): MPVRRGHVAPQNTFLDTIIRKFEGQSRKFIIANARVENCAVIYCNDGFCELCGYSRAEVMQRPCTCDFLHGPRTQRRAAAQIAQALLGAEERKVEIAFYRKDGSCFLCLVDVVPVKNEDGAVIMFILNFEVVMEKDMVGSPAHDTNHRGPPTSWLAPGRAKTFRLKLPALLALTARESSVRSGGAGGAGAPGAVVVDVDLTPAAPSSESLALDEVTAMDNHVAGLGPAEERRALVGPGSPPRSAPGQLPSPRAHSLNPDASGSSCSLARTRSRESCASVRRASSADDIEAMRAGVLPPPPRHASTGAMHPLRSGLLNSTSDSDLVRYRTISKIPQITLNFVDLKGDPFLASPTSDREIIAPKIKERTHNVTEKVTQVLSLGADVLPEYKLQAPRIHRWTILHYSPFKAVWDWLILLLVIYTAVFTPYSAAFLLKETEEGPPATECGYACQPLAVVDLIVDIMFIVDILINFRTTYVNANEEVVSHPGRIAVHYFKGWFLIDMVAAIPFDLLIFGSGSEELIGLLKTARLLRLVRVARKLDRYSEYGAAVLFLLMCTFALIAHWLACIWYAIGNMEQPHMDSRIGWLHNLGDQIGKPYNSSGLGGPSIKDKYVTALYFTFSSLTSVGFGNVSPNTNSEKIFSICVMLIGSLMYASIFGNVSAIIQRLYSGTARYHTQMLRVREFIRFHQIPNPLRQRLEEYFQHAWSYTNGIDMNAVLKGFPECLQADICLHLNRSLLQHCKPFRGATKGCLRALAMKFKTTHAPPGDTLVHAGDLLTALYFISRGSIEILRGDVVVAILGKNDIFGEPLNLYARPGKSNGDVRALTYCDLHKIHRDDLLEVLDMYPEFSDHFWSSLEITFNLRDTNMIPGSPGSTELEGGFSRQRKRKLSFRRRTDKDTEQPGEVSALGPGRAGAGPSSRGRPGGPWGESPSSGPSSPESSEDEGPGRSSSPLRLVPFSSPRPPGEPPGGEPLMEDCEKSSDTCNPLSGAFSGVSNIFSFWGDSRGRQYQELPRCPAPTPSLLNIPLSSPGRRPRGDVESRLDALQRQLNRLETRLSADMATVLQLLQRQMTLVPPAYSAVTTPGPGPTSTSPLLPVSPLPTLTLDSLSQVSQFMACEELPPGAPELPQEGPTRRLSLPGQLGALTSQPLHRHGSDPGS

[36] = test system: Rattus norvegicus; assay: Anti-autoimmune disease activity in OFA rat model of T-cell dependent B cell response assessed as reduction in SRBC-induced IgM producing B cells at 0.3 mg/kg, po QD for 4 days starting 2 days prior to immunization by ex vivo plaque forming assay relative to control; format: functional; conditions: 96 h, read-out: INH, time 4 day
[37] = test system: Rattus norvegicus; assay: Anti-autoimmune disease activity in OFA rat model of T-cell dependent B cell response assessed as reduction in SRBC-induced IgM producing B cells at 3 mg/kg, po QD for 4 days starting 2 days prior to immunization by ex vivo plaque forming assay relative to control; format: functional; conditions: 96 h, read-out: INH, time 4 day
[38] = test system: Rattus norvegicus; assay: Anti-autoimmune disease activity in OFA rat model of T-cell dependent B cell response assessed as reduction in SRBC-induced IgM producing B cells dosed orally once daily for 4 days starting 2 days prior to immunization by ex vivo plaque forming assay relative to control; format: functional
[39] = Cmax in blood of OFA rat model of T-cell dependent B cell response at 0.3 mg/kg, po QD for 4 days starting 2 days prior to immunization and measured after 3 hrs; format: ADME, organism-based; set-up: route oral, time 4 day, dose 0.3 mg/kg
[40] = Cmax in blood of OFA rat model of T-cell dependent B cell response at 0.3 mg/kg, po QD for 4 days starting 2 days prior to immunization and measured after 24 hrs; format: ADME, organism-based; set-up: route oral, dose 0.3 mg/kg, time 5 day
[41] = Cmax in blood of OFA rat model of T-cell dependent B cell response at 1 mg/kg, po QD for 4 days starting 2 days prior to immunization and measured after 3 hrs; format: ADME, organism-based; set-up: route oral, dose 1 mg/kg, time 4 day
[42] = Cmax in blood of OFA rat model of T-cell dependent B cell response at 1 mg/kg, po QD for 4 days starting 2 days prior to immunization and measured after 24 hrs; format: ADME, organism-based; set-up: route oral, dose 1 mg/kg, time 5 day
[43] = Cmax in blood of OFA rat model of T-cell dependent B cell response at 3 mg/kg, po QD for 4 days starting 2 days prior to immunization and measured after 3 hrs; format: ADME, organism-based; set-up: route oral, dose 3 mg/kg, time 4 day
[44] = Cmax in blood of OFA rat model of T-cell dependent B cell response at 3 mg/kg, po QD for 4 days starting 2 days prior to immunization and measured after 24 hrs; format: ADME, organism-based; set-up: route oral, dose 3 mg/kg, time 5 day
[45] = test system: TMD8; assay: Inhibition of IL-10 production in tumor of CD79B-mutant containing human TMD8 cells xenografted in SCID-bg mouse at 30 mg/kg, po administered as single dose; format: functional, organism-based
[46] = test system: OCI-Ly3; assay: Antitumor activity against human OCILY3 cells xenografted in SCID-bg mouse assessed as inhibition of tumor growth by measuring T/C ratio at 30 mg/kg, po QD for 49 days; format: functional; conditions: time 49 day
[47] = test system: OCI-Ly3; assay: Antitumor activity against human OCILY3 cells xenografted in SCID-bg mouse assessed as tumor regression level at 30 mg/kg, po BID for 49 days; format: functional; conditions: time 49 day
[48] = test system: OCI-Ly3; assay: Antitumor activity against human OCILY3 cells xenografted in SCID-bg mouse assessed as inhibition of tumor growth by measuring T/C ratio at 30 mg/kg, po QD for 53 days; format: functional, organism-based; conditions: time 53.0 day
[49] = test system: OCI-Ly3; assay: Antitumor activity against human OCILY3 cells xenografted in SCID-bg mouse assessed as tumor regression level at 30 mg/kg, po BID for 53 days; format: functional; conditions: time 53 day
[50] = Toxicity in SCID-bg mouse xenografted with human OCILY3 cells assessed as effect on body weight at 30 mg/kg, po QD for 49 days; format: organism-based; conditions: in vivo, 1176 h, time 49 day
[51] = Toxicity in SCID-bg mouse xenografted with human OCILY3 cells assessed as effect on body weight at 30 mg/kg, po BID for 49 days; format: organism-based; conditions: in vivo, 1176 h, time 49 day

microsomal CLint [1]: < 25 µL/min/mg
microsomal CLint [2]: < 25 µL/min/mg
microsomal CLint [3]: < 25 µL/min/mg
logP [4]: 3.4
fraction unbound [5]: 0.017
fraction unbound [6]: 0.03
Papp A→B [7]: 12.8 ×10⁻⁶ cm/s
IC50 [8]: > 20 µM
IC50 [9]: > 20 µM
IC50 [10]: > 20 µM
solubility thermodynamic [11]: 4 µg/mL (≈ 8.92 µM)
bioavailability [12]: 83%
clearance [13]: 7 mL/min/kg
clearance [14]: 5 mL/min/kg
half-life [15]: 8.5 h
half-life [16]: 3.7 h
Vd [17]: 4.2 L/kg
Vd [18]: 1.4 L/kg
AUC [19]: 13.2 µM·h
AUC [20]: 20.1 µM·h
Cmax [21]: 700 nM
Cmax [22]: 1700 nM
bioavailability [23]: 79%
IC50 [26]: 0.24 µM
IC50 [28]: 0.03 µM
IC50 [29]: > 100 µM
IC50 [30]: > 100 µM
IC50 [31]: > 100 µM
IC50 [32]: > 100 µM
IC50 [33]: > 100 µM
IC50 [34]: > 100 µM
Cmax [39]: 130 nM
Cmax [40]: 50 nM
Cmax [41]: 670 nM
Cmax [42]: 260 nM
Cmax [43]: 2300 nM
Cmax [44]: 1000 nM
SMILES: CO[C@@H](C)c1c(NC(=O)Nc2cnc(-n3nccn3)c(Cl)c2)cnc2cc(Cl)nn12
growth inhibition (GI) [24]: Dose-dependent effect
growth inhibition (GI) [25]: inactive
IC50 [27]: > 10 µM
IC50 [35]: > 30 µM
inhibition in vivo at 0.3 mg/kg [36]: 58%
inhibition in vivo at 3 mg/kg [37]: 97%
ED50 ([38]; po, 96 h, time 4 day): 0.3 mg/kg
Activity ([38]; time 4.0 day): Dose-dependent effect
inhibition [45]: Active
T/C [46]: 32%
Activity [47]: -20%
Activity [48]: Active
Activity [49]: -50%
Activity [50]: Non-Toxic
Activity [51]: Non-Toxic
